Assay [1] concerns the target T1, human EP3 receptor (Homo sapiens, UniProt P43115).
T1 construct: expressed in transfected cells
T1 sequence (P43115 1-390): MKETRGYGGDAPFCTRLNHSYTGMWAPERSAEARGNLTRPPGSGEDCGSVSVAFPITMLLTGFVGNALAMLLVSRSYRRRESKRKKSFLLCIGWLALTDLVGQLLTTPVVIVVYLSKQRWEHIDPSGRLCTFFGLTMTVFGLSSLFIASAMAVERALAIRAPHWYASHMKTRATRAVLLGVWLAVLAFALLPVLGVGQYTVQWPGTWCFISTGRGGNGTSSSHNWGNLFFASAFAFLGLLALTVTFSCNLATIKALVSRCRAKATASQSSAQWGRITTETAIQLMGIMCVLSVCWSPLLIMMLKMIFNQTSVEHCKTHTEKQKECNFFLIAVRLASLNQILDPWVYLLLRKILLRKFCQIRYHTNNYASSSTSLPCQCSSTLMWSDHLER
Briefly: Binding ability to human EP3 receptor ([3H]PGE2 displacement). Particulars: membranes from cells stably transfected with human EP receptor cDNA; [3H]PGE2 2.5 nM; Cheng-Prusoff from IC50; read-out: pKi EP3 (converted). On the procedure: (§1) Membranes were prepared from cells stably transfected with human EP receptor cDNA. In brief, cells were cultured to confluency, scraped from culture flasks, and centrifuged (800 g, 8 minutes, 4° C.). Cells were twice washed in ice cold homogenisation buffer containing 10 mMTris-HCl, 1 mM EDTA. 2Na, 250 mM sucrose, 1 mM PMSF, 0.3 mM indomethacin, pH 7.4, homogenised and re-centrifuged as before. The supernatant was stored on ice and pellets re-homogenised and re-spun. Supernatants were pooled and centrifuged at 40000 g, 10 minutes, 4° C. Resultant membrane pellets were stored at −80° C. until use.
(§2) For assay, membranes expressing human EP4, EP3, EP2 or EP1 receptors were incubated in Millipore (MHVBN45) plates containing assay buffer, radiolabelled [^3H]PGE2 and 0.1 to 10 000 nM concentrations of compounds. Incubations were performed at suitable temperatures and for suitable times to allow equilibrium to be reached. Non-specific binding was determined in the presence of 10 uM PGE2. Bound and free radiolabel was separated by vacuum manifold filtration using appropriate wash buffers, and bound radiolabel was determined by scintillation counting. Constituents of each of the buffers are included in table 1 below.
(§3) This approach follows that set out in Kenakin, T. P., Pharmacologic analysis of drug receptor interaction. Raven Press, New York, 2nd edition.

Assay [2] addresses T2, human EP2 receptor (Homo sapiens, UniProt P43116).
T2 construct: expressed in transfected cells
Description: Binding ability to human EP2 receptor ([3H]PGE2 displacement). The settings on record: read-out: pKi EP2 (converted). On the procedure: as §1, §2, §3

The target in assay [3] is T3, human EP4 receptor (Homo sapiens, UniProt P35408).
T3 construct: expressed in transfected cells
Description: Binding ability to human EP4 receptor ([3H]PGE2 displacement). The settings on record: read-out: pKi EP4 (converted). As to the method:
as §1
Incubations were performed at suitable temperatures and for suitable times to allow equilibrium to be reached. Non-specific binding was determined in the presence of 10 uM PGE2. Bound and free radiolabel was separated by vacuum manifold filtration using appropriate wash buffers, and bound radiolabel was determined by scintillation counting. Constituents of each of the buffers are included in table 1 below.
as §3

Bounds are passed on as bounds.

T3 sequence (P35408 whole entry): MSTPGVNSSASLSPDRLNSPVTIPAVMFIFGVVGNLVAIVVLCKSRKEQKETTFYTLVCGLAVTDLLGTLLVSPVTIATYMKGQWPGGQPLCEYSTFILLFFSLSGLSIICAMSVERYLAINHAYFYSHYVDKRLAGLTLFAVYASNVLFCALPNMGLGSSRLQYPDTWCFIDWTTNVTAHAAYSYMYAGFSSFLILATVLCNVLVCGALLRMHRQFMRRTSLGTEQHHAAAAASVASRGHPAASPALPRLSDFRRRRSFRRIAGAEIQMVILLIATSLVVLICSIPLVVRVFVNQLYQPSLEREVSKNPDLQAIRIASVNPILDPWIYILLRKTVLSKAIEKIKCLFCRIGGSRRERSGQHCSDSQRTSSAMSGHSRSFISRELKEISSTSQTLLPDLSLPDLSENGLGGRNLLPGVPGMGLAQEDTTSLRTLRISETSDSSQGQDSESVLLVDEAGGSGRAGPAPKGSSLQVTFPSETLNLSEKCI
T2 sequence (P43116 whole entry): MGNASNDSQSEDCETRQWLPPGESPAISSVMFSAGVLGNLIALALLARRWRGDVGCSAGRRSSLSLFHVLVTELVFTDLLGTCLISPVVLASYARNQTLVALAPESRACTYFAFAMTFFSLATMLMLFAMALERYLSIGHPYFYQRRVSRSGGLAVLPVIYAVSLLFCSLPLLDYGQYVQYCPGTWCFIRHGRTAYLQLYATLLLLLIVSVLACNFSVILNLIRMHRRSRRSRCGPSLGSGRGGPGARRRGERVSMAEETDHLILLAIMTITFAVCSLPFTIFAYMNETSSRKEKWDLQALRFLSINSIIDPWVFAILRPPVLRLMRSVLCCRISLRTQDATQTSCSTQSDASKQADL

For `COc1ccc(-c2ccc(NC(=O)c3cc(C(=O)NS(=O)(=O)c4ccccc4)oc3C)cc2)cc1` [Compound 25, 5-Benzenesulfonylaminocarbonyl-2-methyl-furan-3-carboxylic acid (4′-methoxy-biphenyl-4-yl)-amide], the Ki was over 10 µM in assay [1], over 10 µM in assay [2] and under 0.316 µM in assay [3].

With `Cc1oc(CCC(=O)NS(=O)(=O)c2ccccc2)cc1COc1ccc(-c2ccccc2)cc1` [Compound 38, N-{3-[4-(Biphenyl-4-yloxymethyl)-5-methyl-furan-2-yl]-propionyl}-benzene sulfonamide], the figures for the Ki in assay [1], in assay [2] and in assay [3] were over 10 µM, over 3.16 µM and under 1 µM, respectively.

On to `COc1ccc(-c2ccc(OCc3cc(CCC(=O)O)oc3C)cc2)cc1` [Compound 39, 3-[4-(4′-Methoxy-biphenyl-4-yloxymethyl)-5-methyl-furan-2-yl]-propionic acid], for which the Ki was over 10 µM in assay [1], over 10 µM in assay [2] and under 0.1 µM in assay [3].

In the case of `COc1ccc(-c2ccc(OCc3cc(CCC(=O)NS(=O)(=O)c4ccccc4)oc3C)cc2)cc1` [Compound 40, N-{3-[4-(4′-Methoxy-biphenyl-4-yloxymethyl)-5-methyl-furan-2-yl]-propionyl}-benzene sulfonamide], the Ki is over 10 µM in assay [1], over 10 µM in assay [2] and under 0.1 µM in assay [3].

Take `Cc1oc(/C=C/C(=O)O)cc1COc1ccc(-c2ccccc2)cc1` [Compound 42, 3-[4-(Biphenyl-4-yloxymethyl)-5-methyl-furan-2-yl]-acrylic acid]: the Ki was over 10 µM in assay [1], over 10 µM in assay [2] and under 0.1 µM in assay [3].

With `COc1ccc(-c2ccc(OCc3cc(/C=C/C(=O)O)oc3C)cc2)cc1` [Compound 43, 3-[4-(4′-Methoxy-biphenyl-4-yloxymethyl)-5-methyl-furan-2-yl]-acrylic acid], the Ki in assay [1] is over 10 µM; in assay [2], over 10 µM; in assay [3], under 0.1 µM.

Turning to `Cc1oc(S(=O)(=O)NC(=O)c2ccccc2)cc1COc1ccc(-c2ccccc2)cc1` [Compound 46, 4-(Biphenyl-4-yloxymethyl)-5-methyl-furan-2-sulfonic acid benzoylamide], the Ki in assay [1] is over 10 µM; in assay [2] it was over 10 µM; in assay [3], under 0.1 µM.

As for `Cc1oc(C(=O)O)cc1COc1ccc2c(c1)oc1ccccc12` [Compound 50, 4-(Dibenzofuran-3-yloxymethyl)-5-methyl-furan-2-carboxylic acid], the Ki in assay [1] was over 10 µM; in assay [2], over 3.16 µM; in assay [3], under 3.16 µM.

`COc1ccc(-c2ccc(OCc3cc(C(=O)O)oc3C)cn2)cc1` [Compound 56, 4-[6-(4-Methoxy-phenyl)-pyridin-3-yloxymethyl]-5-methyl-furan-2-carboxylic acid]: the results for the Ki in assay [1], in assay [2] and in assay [3] were over 10 µM, over 31.6 µM and under 3.16 µM, respectively.

With `CCCC(=O)NS(=O)(=O)c1cc(COc2ccc(-c3ccccc3)cc2)c(C)o1` [Compound 61, 4-(Biphenyl-4-yloxymethyl)-5-methyl-furan-2-sulphonic acid butyryl-amide], the Ki in assay [1] is over 10 µM; in assay [2] it was over 10 µM; in assay [3] it was under 1 µM.

In the case of `Cc1oc(S(=O)(=O)NC(=O)Cc2ccccc2)cc1COc1ccc(-c2ccccc2)cc1` [Compound 62, 4-(Biphenyl-4-yloxymethyl)-5-methyl-furan-2-sulphonic acid phenylacetyl-amide], the Ki in assay [1] was over 10 µM; in assay [2] it was over 10 µM; in assay [3], under 0.1 µM.

For `Cc1noc(C)c1C(=O)NS(=O)(=O)c1cc(COc2ccc(-c3ccccc3)cc2)c(C)o1` [Compound 63, 4-(Biphenyl-4-yloxymethyl)-5-methyl-furan-2-sulphonic acid (3,5-dimethyl-isoxazole-4-carbonyl)-amide], the Ki is over 10 µM in assay [1], over 10 µM in assay [2] and under 0.316 µM in assay [3].

On to `Cc1oc(S(=O)(=O)NC(=O)c2cccs2)cc1COc1ccc(-c2ccccc2)cc1` [Compound 64, 4-(Biphenyl-4-yloxymethyl)-5-methyl-furan-2-sulphonic acid (thiophene-2-carbonyl)-amide], for which the Ki in assay [1] was over 10 µM; in assay [2] it was over 10 µM; in assay [3], under 0.1 µM.

With `Cc1oc(S(=O)(=O)NC(=O)c2ccncc2)cc1COc1ccc(-c2ccccc2)cc1` [Compound 67, 4-(Biphenyl-4-yloxymethyl)-5-methyl-furan-2-sulphonic acid (pyridine-4-carbonyl)-amide], the Ki in assay [1] was over 10 µM; in assay [2], over 10 µM; in assay [3], under 1 µM.

`Cc1oc(S(=O)(=O)NC(=O)c2cccnc2)cc1COc1ccc(-c2ccccc2)cc1` [Compound 68, 4-(Biphenyl-4-yloxymethyl)-5-methyl-furan-2-sulphonic acid (pyridine-3-carbonyl)-amide]: the Ki is over 10 µM in assay [1], over 10 µM in assay [2] and under 1 µM in assay [3].

With `COc1ccc(-c2ccc(OCc3cc(S(=O)(=O)NC(=O)c4c(C)noc4C)oc3C)cc2)cc1` [Compound 69, 4-(4′-Methoxy-biphenyl-4-yloxymethyl)-5-methyl-furan-2-sulphonic acid (3,5-dimethyl-isoxazole-4-carbonyl)-amide], the Ki in assay [3] is under 0.1 µM.

Turning to `COc1ccc(-c2ccc(OCCc3cc(C(=O)O)oc3C)cc2)cc1` [Compound 73, 4-[2-(4′-Methoxy-biphenyl-4-yloxy)-ethyl]-5-methyl-furan-2-carboxylic acid], the Ki in assay [1] was over 10 µM; in assay [2], over 10 µM; in assay [3], under 3.16 µM.

Take `Cc1oc(C(=O)O)cc1CCOc1ccc2c(c1)oc1ccccc12` [Compound 74, 4-[2-(Dibenzofuran-3-yloxy)-ethyl]-5-methyl-furan-2-carboxylic acid]: the Ki is over 10 µM in assay [1], over 10 µM in assay [2] and under 3.16 µM in assay [3].

Consider `O=C(O)c1cc(COc2ccc3oc4ccccc4c3c2)co1` [Compound 78, 4-(Dibenzofuran-2-yloxymethyl)-furan-2-carboxylic acid], for which the Ki in assay [1] is over 10 µM; in assay [2], over 3.16 µM; in assay [3], under 10 µM.

Consider `N#Cc1ccc(-c2ccc(OCc3coc(C(=O)O)c3)cc2)cc1` [Compound 79, 4-(4′-Cyano-biphenyl-4-yloxymethyl)-furan-2-carboxylic acid], for which the Ki is over 10 µM in assay [1], over 10 µM in assay [2] and under 3.16 µM in assay [3].

As to `COc1ccc(-c2ccc(OCc3coc(C(=O)O)c3)cc2)cc1` [Compound 80, 4-(4′-Methoxy-biphenyl-4-yloxymethyl)-furan-2-carboxylic acid], the Ki in assay [1] was over 10 µM; in assay [2], over 10 µM; in assay [3], under 0.316 µM.

Turning to `O=C(O)c1cc(COc2ccc3c(c2)oc2ccccc23)co1` [Compound 81, 4-(Dibenzofuran-3-yloxymethyl)-furan-2-carboxylic acid], the values for the Ki in assay [1], in assay [2] and in assay [3] were over 10 µM, over 3.16 µM and under 3.16 µM, respectively.

Consider `COc1ccc(-c2ccc(OCc3cc(C(=O)O)oc3C(C)C)cc2)cc1` [Compound 86, 5-Isopropyl-4-(4′-methoxy-biphenyl-4-yloxymethyl)-furan-2-carboxylic acid], for which the Ki in assay [1] is over 10 µM; in assay [2], over 10 µM; in assay [3], under 1 µM.

In the case of `CC(C)c1oc(C(=O)O)cc1COc1ccc2c(c1)oc1ccccc12` [Compound 87, 4-(Dibenzofuran-3-yloxymethyl)-5-isopropyl-furan-2-carboxylic acid], the Ki in assay [1] was over 10 µM; in assay [2], over 10 µM; in assay [3], under 3.16 µM.

For `Cc1ccccc1S(=O)(=O)NC(=O)c1cc(CNc2ccc(-c3ccc(OC(F)F)cc3)cc2)c(C)o1` [Compound 173, N-{4-[(4′-Difluoromethoxy-biphenyl-4-ylamino)-methyl]-5-methyl-furan-2-carbonyl}-2-methyl-benzenesulphonamide], the Ki was over 10 µM in assay [1] and over 3.16 µM in assay [2].

The values above are taken from patent US7858644B2, “EP4 receptor antagonists” (Asterand UK Limited, priority 2003, dated 2010).
